Source: US6630569B1, “Ectoparasiticide agents” (priority 1998, dated 2003)

How the values were obtained:
[1] = test system: Lucilia cuprina larvae (1st-3rd stage); test: Blowfly larvae test / development-inhibitory action; type: in vivo; conditions: 100% = no flies hatched
Description: Blowfly Larvae Test/Development-inhibitory Action
Test animals: Lucilia cuprina larvae (1st-3rd stage)
(§1) Solvent: Dimethyl sulphoxide
20 mg of active compound are dissolved in one ml of dimethyl sulphoxide. To prepare a suitable formulation, the solution of active compound is diluted with water to the particular desired concentration.
About 20 Lucilia cuprina larvae are introduced into a test tube which contains about 1 cm^3 of horse meat and 0.5 ml of the preparation of active compound to be tested. After 24 hours and 48 hours, the effectiveness of the preparation of active compound is determined. The test tubes are transferred into beakers whose bottom is covered with sand. After a further two days, the test tubes are removed and the pupae are counted.
The effect of the preparation of active compound is assessed by the number of flies which have hatched after 1.5 times the development period of an untreated control. 100% means that no flies have hatched; 0% means that all flies have hatched normally.

[2] = test system: Adults of Ctenocephalides felis; test: Test with cat fleas / oral uptake; type: in vivo; conditions: dosage 100 μg; mortality after 24 h, blood feeding
Description: Test with Cat Fleas/oral Uptake
Test animals: Adults of Ctenocephalides felis
Solvent: Dimethyl sulphoxide (DMSO)
7.5 μl of this formulation are added to 3.5 ml of citrated cattle blood and stirred.
20 unfed adult fleas (Ctenocephalides felis, strain “Georgi”) are placed into a chamber (Ø 2.5 cm) whose top and bottom are closed with gauze. A metal cylinder whose underside is covered with parafilm is placed onto the chamber. […] Whereas the blood is warmed to 37° C., the temperature in the area of the flea chambers is adjusted to 25° C. Controls are mixed with the same volume of DMSO, without addition of a compound. The determinations are carried out in triplicate.
After 24 h, the mortality in % (=dead fleas) is determined, using imidacloprid as standard.

[3] = test system: All stages of Boophilus microplus, pyrethroid-resistant strain; test: In vivo test on ticks / mini-dip on cattle; conditions: dosage 1000 μg, 100% = no ticks with fertile eggs
Description: In vivo Test on Ticks/mini-dip on Cattle
Test object: All stages of Boophilus microplus (larvae, metalarvae, nymphs, metanymphs and adults) pyrethroid-resistant strain.
Solution: Active compound 30% strength in methyl glycol and emulsifier NP 10 in a ratio of 1:1.
For the treatment of the cattle, concentrations of 1000, 300, 100, 30, 10 and 1 ppm are used, in a volume of 200 ml. The cattle hide to be treated is wetted with the solution of active compound for 1 min.
14×, in intervals of two days, cattle is infected with about 3000 14- to 28-day-old larvae of B. microplus which have not been fed. On day 23 p.i., defined areas on the surface of the cattle skin are wetted with the abovementioned preparation of active compound. From day 24 to 45 p.i., the female adult ticks which develop are counted, and the fertility of the eggs laid by these ticks is checked and used to determine the activity of the preparation of active compound.

silkworms = conditions: in vivo; cited from earlier work
[4] = test system: Adult females of Boophilus microplus (parkhurst strain, SP-resistant); test: Test with resistant monoxenous cattle ticks / SP-resistant Parkhurst strain (injection into abdomen); type: in vivo; conditions: dosage 20 μg injected; 100% = no fertile eggs
Description: Test with Resistant Monoxenous Cattle Ticks/SP-resistant Parkhurst Strain
Test animals: Adult females of Boophilus microplus (parkhurst strain, SP-resistant) which have sucked themselves full
as §1
20 mg of active compound are dissolved in one ml of dimethyl sulphoxide, more dilute concentrations are prepared by dilution in the same solvent.
The test is carried out in five replications. 1 μl of the solutions is injected into the abdomen, and the animals are transferred into dishes and kept in a climatized room. After seven days, the activity is checked by examination for the position of fertile eggs. Eggs whose fertility is not visible from the outside are stored in glass tubes in a controlled-environment cabinet until the larvae have hatched after about 24 days. An activity of 100% means that the tick has not produced any fertile eggs.

SMILES	Activity (in %) ([1]; dosage 1000 ppm) [%]	Activity (in %) [2] [%]	Activity (in %) [3] [%]	insecticidal activity against silkworms (silkworms)	Activity (in %) [4] [%]	Activity (in %) ([1]; dosage 100 ppm) [%]
CC(C)C[C@H]1C(=O)O[C@H](Cc2ccccc2)C(=O)N(C)[C@@H](CC(C)C)C(=O)O[C@H](C)C(=O)N(C)[C@@H](CC(C)C)C(=O)O[C@H](Cc2ccccc2)C(=O)N(C)[C@@H](CC(C)C)C(=O)O[C@H](C)C(=O)N1C [PF 1022A, cyclo(-N-methyl-L-leucinyl-D-lactyl-N-methyl-L-leucinyl-D-phenyllactyl-N-methyl-L-leucinyl-D-lactyl-N-methyl-L-leucinyl-D-phenyllactyl-)]	0	0	0	insecticidal activity	0	–
CC(C)C[C@H]1C(=O)O[C@H](C(C)C)C(=O)N(C)[C@@H](CC(C)C)C(=O)O[C@H](C(C)C)C(=O)N(C)[C@@H](CC(C)C)C(=O)O[C@H](C(C)C)C(=O)N(C)[C@@H](CC(C)C)C(=O)O[C@H](C(C)C)C(=O)N1C [bassianolide]	–	–	–	insecticidal activity	–	–
CC(C)C[C@@H]1C(=O)O[C@@H](Cc2ccc(N3CCOCC3)cc2)C(=O)N(C)[C@H](CC(C)C)C(=O)O[C@@H](C)C(=S)N(C)[C@H](CC(C)C)C(=O)O[C@@H](Cc2ccc(N3CCOCC3)cc2)C(=O)N(C)[C@H](CC(C)C)C(=O)O[C@@H](C)C(=O)N1C [compound 9, Cyclo-(N-methyl-L-leucinyl-D-thiolactyl-N-methyl-L-leucinyl-D-4-morpholino-phenyllactyl-N-methyl-L-leucinyl-D-lactyl-N-methyl-L-leucinyl-D-4-N-morpholinophenyllactyl-)]	100	100	–	–	–	100
